Reference: patent US20130143795A1, “METHOD OF TREATMENT OF HIV OR AIDS” (Adistem Ltd., priority 2010, published 2013)
Values joined by “and” are separate entries in the source; they are usually repeats but may differ in a detail not shown here. Identical values can stand only once.

Legend:
[1] = test system: CXCR4 coreceptor-trophic HT/92/599 strain of HIV-1; assay: Antiviral assay in fresh human PBMCs, HIV-1 HT/92/599; assay type: cell-based; conditions: for antiviral activity against HIV-1 HT/92/599 (T-cell tropic): concentrations up to a high test concentration of 500 μM
Procedure: (§1) The peptide Ac-LKKTETQ-OH was evaluated in fresh human peripheral blood mononuclear cells (PBMCs) against CXCR4 coreceptor-trophic HT/92/599 and the CCR5 coreceptor-trophic BaL subtype B strains of HIV-1. The peptide was added to the cells at 8 hours prior to infection and immediately prior to infection. The AZT control compound was evaluated in parallel with the peptide and yielded EC50 values of 8 and 6 nM against HIV-1HT/92/599 and values of 6 and 10 nM against HIV-1PaL.

[2] = test system: CCR5 coreceptor-trophic BaL subtype B strain of HIV-1; assay: Antiviral assay in fresh human PBMCs, HIV-1 BaL; assay type: cell-based; conditions: for antiviral activity against HIV-1 BaL (macrophage tropic): concentrations up to a high test concentration of 500 μM
Procedure: as §1

Pilot trial: body weight = assay type: in vivo, human; conditions: HIV positive patients, 10 mg s.c. once a week, one value per patient (A-T)
Procedure: (§2) The peptide Ac-LKKTETQ-OH was the active therapeutic agent investigated in a pilot trial on twenty similar HIV positive men and women, some who had progressed to severe AIDS.
(§3) Each man or women was injected subcutaneously with a composition comprising the peptide Ac-LKKTETQ-OH (10 mg), once a week for 12 weeks. Blood tests for CD4 and CD8-positive cells and HIV viral load (by PCR) and routine pathology were conducted at baseline, 8 weeks and 12 weeks. […] A small drop in blood glucose was seen but this was not determined to be significant.

[3] = test system: CD4-positive white blood cell; assay: Pilot trial: CD4-positive white blood cell counts; assay type: in vivo, human
Procedure: as §2, §3

[4] = Pilot trial: routine pathology and adverse effects; assay type: in vivo, human; conditions: 10 mg s.c. once a week for 12 weeks
Procedure: as §2, §3

HIV = assay: Pilot trial: HIV viral load (by PCR); assay type: in vivo
Procedure: as §2, §3

[5] = test system: CD8-positive white blood cell; assay: Pilot trial: CD8-positive white blood cell counts; assay type: in vivo, human
Procedure: as §2, §3

[6] = HIV positive patients and those showing symptoms of AIDS
[7] = HIV positive patients, 10 mg s.c. once a week, 8 weeks, one value per patient (A-T)
[8] = HIV positive patients, 10 mg s.c. once a week, 12 weeks, one value per patient (A-T)

Compound | EC50 ([1]; two values, evaluated in parallel with peptide added 8 hours prior to and immediately prior to infection, read-out: EC50 against HIV-1HT/92/599) | EC50 ([2]; two values, evaluated in parallel with peptide added 8 hours prior to and immediately prior to infection, read-out: EC50 against HIV-1PaL) | antiviral activity against HIV-1 HT/92/599 (T-cell tropic) ([1]; listed as SEQ ID NO: 1) | antiviral activity against HIV-1 HT/92/599 (T-cell tropic) ([1]; listed as SEQ ID NO:1) | Weight, 8 weeks (Pilot trial: body weight; 8 weeks) | Weight, 12 weeks (Pilot trial: body weight; 12 weeks) | CD4 positive white blood cell counts (summary) [3, 6] | CD4-positive white blood cell count, 8 weeks [3, 7] | CD4-positive white blood cell count, 12 weeks [3, 8] | adverse effect [4] | Hemoglobin levels, Creatinine, ALT, AST, Alkaline Phos, Bilirubin, GGT, Albumin, Total Protein and globulin tests ([4]; baseline, 8 and 12 weeks) | blood glucose ([4]; not determined to be significant) | viral load (summary) (HIV; [6]) | HIV Viral Load, 8 weeks (HIV; HIV positive patients, 10 mg s.c. once a week, 8 weeks, by PCR, one value per patient (A-T)) | HIV Viral Load, 12 weeks (HIV; HIV positive patients, 10 mg s.c. once a week, 12 weeks, by PCR, one value per patient (A-T)) | antiviral activity against HIV-1 BaL (macrophage tropic) ([2]; listed as SEQ ID NO: 1) | antiviral activity against HIV-1 BaL (macrophage tropic) ([2]; listed as SEQ ID NO:1) | CD8 positive white blood cell counts (summary) [5, 6] | CD8-positive white blood cell count, 8 weeks [5, 7] | CD8-positive white blood cell count, 12 weeks [5, 8]
Cc1cn([C@H]2C[C@H](N=[N+]=[N-])[C@@H](CO)O2)c(=O)[nH]c1=O [AZT, reference compound] | 8 nM and 6 nM | 6 nM and 10 nM |  |  |  |  |  |  |  |  |  |  |  |  |  |  |  |  |  | 
Ac-LKKTETQ-OH [Ac-LKKTETQ-OH] |  |  | no effect | did not demonstrate antiviral activity | 92 and 52 and 59 and 71 and 82 and 79 (2×) and 72 (2×) and 60.5 and 50.5 and 58 and 71.5 and 68.5 and 61 and 56 and 55 and 70 and 78 (2×) | 92 and 52 and 72 (4×) and 82 and 79 and 71 (2×) and 51 and 65 and 80 and 69 and 60 and 55 and 58 and 70.5 and 78.5 (2×) | increased | 816 and 415 and 158 and 407 and 456 and 477 and 348 and 381 and 439 and 301 and 335 and 543 and 428 and 466 (2×) and 259 and 471 and 300 and 316 and 602 | 879 and 604 and 175 and 425 and 625 and 662 and 404 and 498 and 510 and 424 and 452 and 749 and 616 and 602 and 368 and 469 and 571 and 430 and 416 and 675 | No adverse effect | did not show anything remarkable | small drop | decreased viral load significantly | undetectable (9×) and 28410 copies/ml and 450 copies/ml and 8214 copies/ml and 17616 copies/ml and 15201 copies/ml and 145 copies/ml and 12004 copies/ml and 8781 copies/ml and 200 copies/ml and 98687 copies/ml and 24 copies/ml | undetectable (19×) and 5151 copies/ml | no effect | did not demonstrate antiviral activity | increased | 980 and 360 and 1310 and 1379 and 1044 and 1296 and 959 and 2120 and 866 and 773 and 594 (2×) and 606 and 939 and 617 and 648 and 456 and 1108 and 1125 | 1330 and 459 and 1718 and 1394 and 1339 and 1226 and 1190 and 2647 and 958 and 800 and 712 and 893 and 983 and 1034 and 880 and 890 and 521 and 1384 and 1201 and 660
